Measured values published in patent US20200262877A1, “ION CHANNEL-BINDING PEPTIDES AND METHODS OF USE THEREOF” (priority 2017, published 2020).
Like-named read-outs stand apart in the source and are kept apart here. Where a SMILES comes first, the peptide text is derived from it. Bridges are numbered along the chain shown (N, C = ends). Where no end group is shown, it is not given here.

Tests used:
[1] = biological target: Nav1.3 sodium channel (human SCN3A gene) (Homo sapiens, UniProt Q9NY46); test: cell-based; set-up: host or cells: CHO
Sequence of Nav1.3 sodium channel (human SCN3A gene) (Q9NY46 whole entry): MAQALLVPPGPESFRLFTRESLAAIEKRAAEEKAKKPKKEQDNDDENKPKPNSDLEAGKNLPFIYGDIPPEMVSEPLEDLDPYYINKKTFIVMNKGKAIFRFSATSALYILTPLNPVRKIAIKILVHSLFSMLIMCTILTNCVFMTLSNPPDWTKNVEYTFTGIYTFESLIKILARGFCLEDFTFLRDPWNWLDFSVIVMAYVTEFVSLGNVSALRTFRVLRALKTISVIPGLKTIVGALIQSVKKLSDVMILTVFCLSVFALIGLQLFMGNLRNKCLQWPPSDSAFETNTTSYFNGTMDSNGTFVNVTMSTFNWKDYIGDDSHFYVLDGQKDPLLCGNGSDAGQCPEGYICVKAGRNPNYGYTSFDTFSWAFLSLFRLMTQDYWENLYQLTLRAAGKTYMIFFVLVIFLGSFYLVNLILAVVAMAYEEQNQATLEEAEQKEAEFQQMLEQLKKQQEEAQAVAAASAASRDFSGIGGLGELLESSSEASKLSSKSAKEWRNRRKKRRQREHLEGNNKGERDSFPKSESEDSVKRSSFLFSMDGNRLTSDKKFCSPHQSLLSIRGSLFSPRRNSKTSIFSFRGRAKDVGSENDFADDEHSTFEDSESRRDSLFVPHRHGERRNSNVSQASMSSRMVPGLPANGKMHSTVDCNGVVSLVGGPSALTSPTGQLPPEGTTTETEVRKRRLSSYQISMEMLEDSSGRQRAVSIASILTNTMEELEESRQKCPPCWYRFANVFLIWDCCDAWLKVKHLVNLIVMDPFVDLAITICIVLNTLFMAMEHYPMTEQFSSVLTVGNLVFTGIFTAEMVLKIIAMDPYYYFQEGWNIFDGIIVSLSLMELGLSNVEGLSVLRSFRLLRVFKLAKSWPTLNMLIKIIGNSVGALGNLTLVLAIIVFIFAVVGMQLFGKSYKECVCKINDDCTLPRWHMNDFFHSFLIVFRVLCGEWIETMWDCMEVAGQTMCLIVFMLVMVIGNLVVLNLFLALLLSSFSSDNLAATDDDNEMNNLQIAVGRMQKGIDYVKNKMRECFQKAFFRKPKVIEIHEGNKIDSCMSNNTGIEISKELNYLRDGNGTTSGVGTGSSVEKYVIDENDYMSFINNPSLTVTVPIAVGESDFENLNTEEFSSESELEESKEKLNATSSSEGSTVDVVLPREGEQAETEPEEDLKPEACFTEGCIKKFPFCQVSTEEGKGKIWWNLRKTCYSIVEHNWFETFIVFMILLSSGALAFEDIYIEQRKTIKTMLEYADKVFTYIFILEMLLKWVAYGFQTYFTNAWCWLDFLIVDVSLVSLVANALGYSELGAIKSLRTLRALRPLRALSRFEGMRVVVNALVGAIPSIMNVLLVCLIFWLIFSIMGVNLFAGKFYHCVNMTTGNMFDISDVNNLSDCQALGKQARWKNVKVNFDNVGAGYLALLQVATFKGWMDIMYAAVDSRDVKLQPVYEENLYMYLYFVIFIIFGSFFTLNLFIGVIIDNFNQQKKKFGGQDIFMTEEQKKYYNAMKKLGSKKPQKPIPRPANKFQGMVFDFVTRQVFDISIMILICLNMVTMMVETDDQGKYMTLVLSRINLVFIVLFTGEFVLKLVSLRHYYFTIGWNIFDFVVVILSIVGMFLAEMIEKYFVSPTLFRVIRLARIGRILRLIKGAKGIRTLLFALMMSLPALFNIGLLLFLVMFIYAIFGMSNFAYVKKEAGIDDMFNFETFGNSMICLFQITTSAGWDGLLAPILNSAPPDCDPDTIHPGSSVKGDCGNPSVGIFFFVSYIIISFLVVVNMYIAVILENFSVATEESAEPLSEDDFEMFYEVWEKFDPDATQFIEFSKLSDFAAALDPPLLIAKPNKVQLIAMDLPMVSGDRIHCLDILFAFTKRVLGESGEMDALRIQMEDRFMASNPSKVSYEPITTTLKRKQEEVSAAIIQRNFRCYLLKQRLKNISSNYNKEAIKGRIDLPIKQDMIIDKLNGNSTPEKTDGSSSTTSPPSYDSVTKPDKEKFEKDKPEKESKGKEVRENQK

[2] = biological target: T1, hERG (Homo sapiens, UniProt Q12809); settings: cited from earlier work
T1 sequence (Q12809 whole entry): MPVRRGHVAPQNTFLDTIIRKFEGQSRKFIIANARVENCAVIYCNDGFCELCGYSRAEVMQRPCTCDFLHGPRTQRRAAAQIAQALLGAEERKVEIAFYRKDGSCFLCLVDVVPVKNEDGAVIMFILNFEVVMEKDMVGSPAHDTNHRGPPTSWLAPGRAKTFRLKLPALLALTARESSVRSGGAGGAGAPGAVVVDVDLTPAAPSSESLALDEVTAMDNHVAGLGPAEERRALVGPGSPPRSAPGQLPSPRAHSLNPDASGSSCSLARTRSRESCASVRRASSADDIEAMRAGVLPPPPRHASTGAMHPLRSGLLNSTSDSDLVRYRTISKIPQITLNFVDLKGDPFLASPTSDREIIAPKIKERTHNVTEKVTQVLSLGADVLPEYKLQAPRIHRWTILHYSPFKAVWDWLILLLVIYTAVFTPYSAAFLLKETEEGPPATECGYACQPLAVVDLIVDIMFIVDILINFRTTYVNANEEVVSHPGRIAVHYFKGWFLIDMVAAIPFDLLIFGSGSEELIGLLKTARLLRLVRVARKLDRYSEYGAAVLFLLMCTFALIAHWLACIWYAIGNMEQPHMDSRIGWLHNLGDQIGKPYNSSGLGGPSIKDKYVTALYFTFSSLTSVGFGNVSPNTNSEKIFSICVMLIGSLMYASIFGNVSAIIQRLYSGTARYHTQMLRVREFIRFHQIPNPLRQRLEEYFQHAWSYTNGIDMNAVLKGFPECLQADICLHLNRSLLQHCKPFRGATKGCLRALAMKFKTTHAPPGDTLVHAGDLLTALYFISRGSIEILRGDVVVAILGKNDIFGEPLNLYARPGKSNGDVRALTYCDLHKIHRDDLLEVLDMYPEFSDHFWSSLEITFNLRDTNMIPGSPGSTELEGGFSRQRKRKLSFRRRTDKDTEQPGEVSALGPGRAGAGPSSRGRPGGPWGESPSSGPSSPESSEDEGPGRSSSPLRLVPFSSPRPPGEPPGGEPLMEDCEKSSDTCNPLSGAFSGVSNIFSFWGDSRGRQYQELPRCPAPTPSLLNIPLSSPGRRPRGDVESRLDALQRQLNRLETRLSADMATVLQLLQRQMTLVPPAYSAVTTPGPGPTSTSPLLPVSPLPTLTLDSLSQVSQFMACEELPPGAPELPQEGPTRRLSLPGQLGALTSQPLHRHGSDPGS

[3] = system: panel of 20 ion channels; assay type: cell-based
Description: This example describes a method for assaying ion channel activity in cells.
Peptides were screened in duplicate at final concentrations of 20 μM and 200 nM, as determined by amino acid analysis, and diluted into HEPES buffered physiological saline (HBPS). HEK293 or CHO cells from the American Type Culture Collection (ATCC) were transfected with the appropriate ion channel before use. HEK293 cells were grown in Dulbecco's Modified Eagle Medium/Nutrient Mixture F-12, and CHO cells were cultured in Ham's F-12 media. All cultures were supplemented with 10% fetal bovine serum, 100 U/ml penicillin G, 100 μg/ml streptomycin sulfate, and the appropriate selection antibiotics. Prior to use, cells were washed twice with Hank's Balanced Salt Solution, and treated with Accutase cell detachment solution (Sigma-Aldrich). Cells were then washed. Peptides and controls were incubated with cells for at least five minutes.
Percent inhibition was defined as: (1-(Ipeptide/Icontrol))×100%).
Percent values were calculated using the following formula: % activation=(IPeptide/Icontrol)×100%, where IPeptide is the current produced by co-application a peptide with agonist, and Icontrol refers to the current produced by stimulation in control. Control used for each ion channel is the reference compound matched to a particular channel, as illustrated in TABLE 10 below.

[4] = biological target: T2, Kv1.2 (Homo sapiens, UniProt P16389); test: cell-based; assay type: cell-based; settings: Kv1.2, percentage of control, 100% = no change, read-out: Ion channel activity (ion channel inhibition); for activity at 20 µM: peptide at 20 μM
T2 construct: host or cells: HEK293 or CHO
T2 sequence (P16389 whole entry): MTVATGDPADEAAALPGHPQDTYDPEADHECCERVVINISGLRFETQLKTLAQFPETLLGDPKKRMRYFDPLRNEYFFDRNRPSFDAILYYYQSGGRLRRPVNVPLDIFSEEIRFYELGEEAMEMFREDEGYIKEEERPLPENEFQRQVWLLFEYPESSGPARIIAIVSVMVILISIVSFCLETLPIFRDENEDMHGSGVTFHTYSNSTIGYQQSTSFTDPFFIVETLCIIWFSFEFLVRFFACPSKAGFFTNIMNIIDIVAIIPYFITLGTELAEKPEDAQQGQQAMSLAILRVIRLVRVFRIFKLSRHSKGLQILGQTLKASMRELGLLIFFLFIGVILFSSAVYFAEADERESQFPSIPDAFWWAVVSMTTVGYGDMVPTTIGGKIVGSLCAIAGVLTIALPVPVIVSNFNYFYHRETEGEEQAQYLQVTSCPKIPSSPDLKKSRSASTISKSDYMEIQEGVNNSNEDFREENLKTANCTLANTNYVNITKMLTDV
Outline: (§1)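 Transfected HEK293 or CHO cells were exposed for at least 5 min to peptides at 200 nM and 20 μM final, tested in duplicate, in HEPES-buffered physiological saline. Activation was taken as peptide-plus-agonist current over control current ×100, and inhibition as 1 minus that ratio ×100. Each channel's control was its own reference compound.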

[5] = biological target: T1, hERG; test: in vitro; settings: for activity at 20 µM: human
Outline: as §1

[6] = biological target: T3, Nav1.7 (Homo sapiens, UniProt Q15858); test: cell-based; assay type: cell-based; settings: read-out: Ion channel activity (ion channel inhibition)
T3 construct: host or cells: HEK293 or CHO

[7] = biological target: Nav1.5 (Homo sapiens, UniProt Q14524); test: in vitro
Outline: as §1

[8] = biological target: T4, Cav2.1 (Homo sapiens, UniProt O00555); test: cell-based; settings: read-out: Ion channel activity (ion channel inhibition)
T4 construct: host or cells: HEK293 or CHO
Outline: as §1

[9] = biological target: T5, Cav2.2 (Homo sapiens, UniProt Q00975); test: cell-based; settings: read-out: Ion channel activity (ion channel inhibition)
T5 construct: host or cells: HEK293 or CHO
Outline: as §1

[10] = system: calcium channels (ryanodine receptors); settings: prior reports; cited from earlier work
[11] = biological target: T6, Nav1.5 cardiac sodium channel (human SCN5A gene) (Homo sapiens, UniProt Q14524); test: cell-based
[12] = biological target: Nav1.7 sodium channel (human SCN9A gene) (Homo sapiens, UniProt Q15858); test: cell-based; set-up: expressed in transfected cells; host or cells: CHO cells; settings: human Nav1.7 in CHO cells
[13] = biological target: Kv1.5 potassium channel (human KCNA5 gene) (Homo sapiens, UniProt P22460); test: cell-based; set-up: host or cells: CHO; settings: human Kv1.5 in CHO cells
Sequence of Kv1.5 potassium channel (human KCNA5 gene) (P22460 whole entry): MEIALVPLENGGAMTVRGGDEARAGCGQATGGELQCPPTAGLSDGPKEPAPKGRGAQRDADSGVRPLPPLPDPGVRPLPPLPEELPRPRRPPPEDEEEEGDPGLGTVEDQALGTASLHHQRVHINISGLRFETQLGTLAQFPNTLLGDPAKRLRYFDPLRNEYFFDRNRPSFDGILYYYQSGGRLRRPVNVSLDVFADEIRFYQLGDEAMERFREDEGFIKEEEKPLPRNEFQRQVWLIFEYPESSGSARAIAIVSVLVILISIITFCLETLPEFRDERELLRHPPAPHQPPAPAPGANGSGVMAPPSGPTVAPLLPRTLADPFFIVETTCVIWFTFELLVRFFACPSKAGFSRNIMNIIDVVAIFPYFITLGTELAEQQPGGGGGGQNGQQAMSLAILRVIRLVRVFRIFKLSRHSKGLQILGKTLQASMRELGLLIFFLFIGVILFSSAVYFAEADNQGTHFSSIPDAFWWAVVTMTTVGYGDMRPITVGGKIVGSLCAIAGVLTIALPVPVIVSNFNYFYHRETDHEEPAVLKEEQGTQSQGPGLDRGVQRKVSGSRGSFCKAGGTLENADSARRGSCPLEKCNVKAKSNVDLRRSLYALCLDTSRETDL

[14] = biological target: Nav1.4 sodium channel (human SCN4A gene) (Homo sapiens, UniProt P35499); test: cell-based; set-up: host or cells: CHO; settings: human Nav1.4 in CHO cells
[15] = biological target: Kv1.3 potassium channel (human KCNA3 gene) (Homo sapiens, UniProt P22001); test: cell-based; set-up: host or cells: CHO; settings: human Kv1.3 in CHO cells
Sequence of Kv1.3 potassium channel (human KCNA3 gene) (P22001 whole entry): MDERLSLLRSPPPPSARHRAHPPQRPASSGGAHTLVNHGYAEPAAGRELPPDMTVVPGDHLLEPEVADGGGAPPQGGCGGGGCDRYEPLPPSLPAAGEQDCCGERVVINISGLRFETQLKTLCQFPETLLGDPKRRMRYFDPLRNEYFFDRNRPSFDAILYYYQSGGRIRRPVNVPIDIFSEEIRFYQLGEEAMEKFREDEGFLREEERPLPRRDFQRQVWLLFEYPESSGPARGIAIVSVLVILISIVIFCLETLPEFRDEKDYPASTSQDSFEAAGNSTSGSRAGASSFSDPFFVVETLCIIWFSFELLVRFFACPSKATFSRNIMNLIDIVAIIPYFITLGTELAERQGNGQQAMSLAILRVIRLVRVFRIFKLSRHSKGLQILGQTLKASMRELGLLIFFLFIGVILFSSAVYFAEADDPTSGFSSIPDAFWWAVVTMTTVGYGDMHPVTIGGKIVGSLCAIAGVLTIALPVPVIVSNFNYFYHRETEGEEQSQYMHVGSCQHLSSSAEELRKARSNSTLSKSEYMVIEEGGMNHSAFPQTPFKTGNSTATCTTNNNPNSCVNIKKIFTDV

[16] = biological target: T6, Nav1.5 cardiac sodium channel (human SCN5A gene); settings: read-out: IC50 Nav1.5 ion channel inhibition, TP2; human Nav1.5 in CHO cells; TP2 (inactivated state inhibition)
[17] = biological target: T7, Kv1.3 (Homo sapiens, UniProt P22001); test: cell-based; assay type: cell-based; settings: Kv1.3; peptide at 20 μM; percentage of control, 100% = no change; read-out: Ion channel activity (ion channel inhibition)
T7 construct: host or cells: HEK293 or CHO
T7 sequence (P22001 whole entry): as above
Outline: as §1

Question: Which IC50 ([1]; read-out: IC50 Nav1.3 ion channel inhibition, TP1) does the source give for `NC1=N[C@H](O)[C@H]2[C@H]3O[C@]4(O)O[C@@H]([C@@H](O)[C@@]2(N1)[C@@H]4O)[C@]3(O)CO` [TTX, Tetrodotoxin, reference compound] here?
Answer: The IC50 was 33 nM.

Question: And the IC50 ([1]; read-out: IC50 Nav1.3 ion channel inhibition, TP2)?
Answer: The IC50 was 28 nM.

Question: What does the source list for “GSDRDSCIDKSRCSKYGYYQECQDCCKKAGHNGGTCMFFKCKCA (disulfide 7-25, 13-36, 22-41, 26-43) [SEQ ID NO: 14]”?
Answer: hERG inhibition or binding, previously reported [2]: previously reported to inhibit hERG channels; Activity on potassium channels ([3]; potassium channels of the panel, 0.2 or 20 μM, FIG. 2): showed activity against additional potassium channels; activity at 0.2 µM ([4]; peptide at 0.2 μM): < 80%; activity at 20 µM [4]: < 50%; activity at 20 µM [5]: < 50%

Question: Which activity at 20 µM [6] does the source give for `CC[C@H](C)[C@@H]1NC(=O)[C@H](CC(N)=O)NC(=O)[C@H](CCCNC(=N)N)NC(=O)[C@@H]2CCCN2C(=O)[C@H](Cc2c[nH]c3ccccc23)NC(=O)[C@H](CCCCN)NC(=O)[C@H](CO)NC(=O)[C@H](CCCCN)NC(=O)[C@@H]2CSSC[C@@H]3NC(=O)[C@H](CCCCN)NC(=O)CNC(=O)[C@H](Cc4c[nH]c5ccccc45)NC(=O)[C@H](Cc4ccccc4)NC(=O)[C@H](CCCNC(=N)N)NC(=O)[C@H](C(C)C)NC(=O)[C@@H](NC(=O)[C@H](CC(=O)O)NC(=O)[C@H](CO)NC(=O)CN)CSSC[C@H](NC(=O)[C@H](CSSC[C@@H](C(=O)N[C@H](C(=O)N[C@@H](Cc4c[nH]c5ccccc45)C(=O)N[C@@H](CC(=O)O)C(=O)NCC(=O)N[C@@H](CO)C(=O)N[C@H](C(=O)NCC(=O)O)C(C)C)C(C)C)NC1=O)NC(=O)[C@H](CC(=O)O)NC(=O)[C@H](CO)NC(=O)[C@H]([C@@H](C)O)NC(=O)[C@H](CCC(N)=O)NC(=O)[C@H](CO)NC3=O)C(=O)N1CCC[C@H]1C(=O)N[C@@H](Cc1c[nH]cn1)C(=O)N[C@@H](CC(C)C)C(=O)N[C@@H](C)C(=O)N2` [SEQ ID NO: 7] here?
Answer: The activity at 20 µM was < 50%.

Question: What about the “Inhibition of voltage-sensitive calcium channels” value [3] of the same compound?
Answer: Its value is “inhibited voltage-sensitive calcium channels”.

Question: And the activity at 20 µM [7]?
Answer: The activity at 20 µM was < 50%.

Question: And the activity at 20 µM [5]?
Answer: The activity at 20 µM was < 50%.

Question: What about the activity at 20 µM [8] of the same compound?
Answer: The activity at 20 µM was < 50%.

Question: And the activity at 20 µM [9]?
Answer: Its activity at 20 µM is < 50%.

Question: Which “Activity against additional potassium channels or serotonin receptors (e.g., 5-HT3a)” value ([3]; 0.2 or 20 μM, FIG. 2) does the source give for “GSSEKDCIKHLQRCRENKDCCSKKCSRRGTNPEKRCR [SEQ ID NO: 3]” here?
Answer: The value was “showed activity against additional potassium channels or serotonin receptors (e.g., 5-HT3a)”.

Question: And the “Inhibition of calcium channels (ryanodine receptors), reported” value [10]?
Answer: The value was “reported to inhibit calcium channels (ryanodine receptors)”.

Question: For “GSGDCLPHLKRCKENNDCCSKKCKRRGANPEKRCR [SEQ ID NO: 11]”, which “Activity against additional potassium channels or serotonin receptors (e.g., 5-HT3a)” value ([3]; 0.2 or 20 μM, FIG. 2) is on record?
Answer: Its value is “showed activity against additional potassium channels or serotonin receptors (e.g., 5-HT3a)”.

Question: What about the “Inhibition of calcium channels (ryanodine receptors), reported” value [10] of the same compound?
Answer: Its value is “reported to inhibit calcium channels (ryanodine receptors)”.

Question: For `CC[C@H](C)[C@@H]1NC(=O)[C@H](CCC(=O)O)NC(=O)[C@H](CCCNC(=N)N)NC(=O)[C@H](CCCNC(=N)N)NC(=O)[C@@H]2CSSC[C@@H](C(=O)N[C@@H](Cc3ccc(O)cc3)C(=O)N[C@@H](CCCNC(=N)N)C(=O)N[C@@H](CC(N)=O)C(=O)O)NC(=O)[C@H](C(C)C)NC(=O)[C@@H]3CSSC[C@H](NC(=O)[C@H](CO)NC(=O)CNC(=O)CNC(=O)[C@H](CCC(N)=O)NC(=O)[C@@H](NC(=O)[C@H](CCCCN)NC(=O)[C@@H](NC(=O)[C@H](CC(N)=O)NC(=O)[C@@H](NC(=O)[C@H](CCC(N)=O)NC(=O)[C@@H](NC(=O)[C@H](CCC(N)=O)NC(=O)[C@H](CO)NC(=O)CN)C(C)C)[C@@H](C)O)C(C)C)CSSC[C@H](NC(=O)[C@H](CCCCN)NC(=O)CNC(=O)[C@H](C)NC(=O)[C@H](C)NC(=O)[C@H](C(C)C)NC(=O)CNC1=O)C(=O)N[C@@H]([C@@H](C)CC)C(=O)N[C@@H](CC(N)=O)C(=O)NCC(=O)N[C@@H](CCCCN)C(=O)N3)C(=O)N[C@@H](C)C(=O)N[C@@H](CO)C(=O)N[C@@H](C(C)C)C(=O)N2` [SEQ ID NO: 10] (H-GSQVQTNVKCQGGSCASVCRREIGVAAGKCINGKCVCYRN-OH; disulfide 10-30, 15-35, 19-37), which IC50 [11] is on record?
Answer: The IC50 was > 1000 nM.

Question: And the IC50 ([1]; human Nav1.3 in CHO cells, TP1 (tonic inhibition), read-out: IC50 Nav1.3 ion channel inhibition, TP1)?
Answer: The IC50 was > 1000 nM.

Question: And the IC50 ([1]; human Nav1.3 in CHO cells, TP2 (inactivated state inhibition), read-out: IC50 Nav1.3 ion channel inhibition, TP2)?
Answer: Its IC50 is > 1000 nM.

Question: And the IC50 ([12]; TP1 (tonic inhibition), read-out: IC50 Nav1.7 ion channel inhibition, TP1)?
Answer: Its IC50 is > 1000 nM.

Question: What about the IC50 ([12]; TP2 (inactivated state inhibition), read-out: IC50 Nav1.7 ion channel inhibition, TP2) of the same compound?
Answer: The IC50 was > 1000 nM.

Question: And the IC50 ([13]; test pulse TP1, read-out: IC50 Kv1.5 ion channel inhibition, TP1)?
Answer: Its IC50 is > 1000 nM.

Question: And the IC50 ([13]; test pulse TP6, read-out: IC50 Kv1.5 ion channel inhibition, TP6)?
Answer: Its IC50 is > 1000 nM.

Question: What about the IC50 ([14]; TP1 (tonic inhibition), read-out: IC50 Nav1.4 ion channel inhibition, TP1) of the same compound?
Answer: Its IC50 is > 1000 nM.

Question: And the IC50 ([14]; TP2 (inactivated state inhibition), read-out: IC50 Nav1.4 ion channel inhibition, TP2)?
Answer: Its IC50 is > 1000 nM.

Question: What about the IC50 ([15]; test pulse TP1, read-out: IC50 Kv1.3 ion channel inhibition, TP1) of the same compound?
Answer: Its IC50 is > 1000 nM.

Question: What about the IC50 ([15]; test pulse TP6, read-out: IC50 Kv1.3 ion channel inhibition, TP6) of the same compound?
Answer: The IC50 was > 1000 nM.

Question: And the IC50 [16]?
Answer: The IC50 was > 1000 nM.

Question: What does the source list for `CC[C@H](C)[C@H](NC(=O)[C@H](CC(=O)O)NC(=O)[C@@H](NC(=O)[C@@H]1CCCN1C(=O)[C@H](CCCNC(=N)N)NC(=O)[C@H](CO)NC(=O)CN)[C@@H](C)O)C(=O)N[C@@H](CCCCN)C(=O)N[C@H]1CSSC[C@@H]2NC(=O)[C@H](CCCNC(=N)N)NC(=O)CNC(=O)[C@H](CC(N)=O)NC(=O)[C@H]([C@@H](C)O)NC(=O)[C@H](CCCCN)NC(=O)CNC(=O)[C@H](Cc3ccccc3)NC(=O)[C@H](CCCNC(=N)N)NC(=O)[C@H](CO)NC(=O)[C@H](CCCCN)NC(=O)[C@@H]3CSSC[C@@H](C(=O)N[C@@H](Cc4ccccc4)C(=O)O)NC(=O)[C@H](CC(=O)O)NC(=O)[C@H](CSSC[C@H](NC(=O)[C@H](CCC(N)=O)NC(=O)[C@H](Cc4ccc(O)cc4)NC(=O)[C@H](CO)NC(=O)[C@H](C)NC(=O)[C@H](CO)NC1=O)C(=O)N[C@@H](Cc1ccccc1)C(=O)N1CCC[C@H]1C(=O)N[C@@H](C(C)C)C(=O)N3)NC(=O)[C@H](CC(C)C)NC(=O)CNC(=O)[C@H](CC(N)=O)NC(=O)[C@H](C(C)C)NC2=O` [SEQ ID NO: 17] (H-GSRPTDIKCSASYQCFPVCKSRFGKTNGRCVNGLCDCF-OH; disulfide 9-30, 15-35, 19-37)?
Answer: hERG inhibition or binding, previously reported [2]: previously been demonstrated to bind to hERG; activity at 20 µM [4]: < 50%; activity at 20 µM [17]: < 50%; Activity against / inhibition of hERG (Kv11.1) ([5]; 0.2 or 20 μM, FIG. 2): confirmed hERG inhibition; activity at 20 µM [5]: < 50%
